Measurements taken from patent US8404672B2, “Substituted heterocyclic compounds” (Bristol-Meyers Squibb Company, priority 2009, dated 2013).
Structures can show the parent of a compound that is named as a salt.

How the values were obtained:
[1] = biological target: T1, S1P1 (membranes from S1P1 transfected CHO cells) (Homo sapiens, UniProt P21453); test: Method B: Receptor [35S] GTPγS SPA Binding Assay, S1P1; type: biochemical; conditions: for GTPγS S1P3/S1P1 (Method B): ratio of GTPγS S1P3 EC50 to GTPγS S1P1 EC50, Method B; for EC50: Method B SPA, S1P1 transfected CHO membranes
T1 construct: expressed in transfected cells; host or cells: CHO cells
Experimental: (§1) Method B: Receptor [35S] GTPγS SPA Binding Assays
(§2) Membranes prepared from S1P1 or S1P3 transfected CHO cells ([…]) were incubated in 96-well white plates (CORNING® 3693) with test compounds diluted in DMSO, in 50 μl of reaction mixture containing 7.5 μl WGA-PVT beads (20 mg/ml), and 5 μM GDP, 20 mM HEPES pH 7.4, 100 mM NaCl, 1 mM EDTA, 5 mM MgCl2, 10 μg/ml saponin, 0.1% BSA, and 1 μM leupeptin. The assay was initiated with the addition of […] of 0.2 nM [^35S]-GTPγS (1250 Ci/mmol; NEN) in assay buffer. After 90 min incubation at room temperature, spin the plate at 1000 rpm for 5 min. The bound radionuclides were measured at TOPCOUNT®, expressed as % response relative to S1P (1 μM) activation. Data was analyzed using the four parameter logistic equation in Excel. The four parameters in the equation, Y=A+((B−A)/(1+((EC50/X)^D))), are described as following: A is the Y value (agonist activity) at the bottom plateau; B is the Y value at the top plateau; EC50 is the X value (agonist concentration) when the response is halfway between bottom and top; D is Hill coefficient. Curves were not generated for compounds having Ymax values were below 50%.
(§3) Compounds of the present invention and Comparative Compound A were tested in the Receptor [35S] GTPγS Binding Assays (Method A) and Receptor [35S] In some instances, the value is an average of multiple experiments where N is the number of experiments conducted that provided satisfactory dose response curves. When more than one batch of an example was tested, the value presented is from a batch which allowed a comparison of GTPγS S1P1 and GTPγS S1P3 in which the most number of experiments were performed. Preferably, the same batch was examined in Method A and Method B. Data was not averaged across different batches of an example compound.

[2] = biological target: T2, S1P1 (membranes from S1P1/CHO cells) (Homo sapiens, UniProt P21453); test: Method A: Receptor [35S] GTPγS Binding Assay, S1P1; type: biochemical; conditions: for GTPγS S1P3/S1P1 (Method A): ratio of GTPγS S1P3 EC50 to GTPγS S1P1 EC50, Method A; for EC50: Method A, S1P1/CHO membranes
T2 construct: expressed in transfected cells; host or cells: S1P1/CHO cells
Experimental: (§4) Method A: Receptor [35S] GTPγS Binding Assays
(§5) Compounds were loaded in a 384 Falcon v-bottom plate (0.5 μl/well in a 3-fold dilution). Membranes prepared from S1P1/CHO cells or EDG3-Gal5-bla HEK293T cells were added to the compound plate (40 μl/well, final protein 3 μg/well) with MULTIDROP®. [^35S]GTP (1250 Ci/mmol, Perkin Elmer) was diluted in assay buffer: 20 mM HEPES, pH 7.5, 10 mM MgCl2, 150 mM NaCl, 1 mM EGTA, 1 mM DTT, 10 μM GDP, 0.1% fatty acid free BSA, and 10 μg/ml Saponin to 0.4 nM. 40 μl of the [^35S] GTP solution was added to the compound plate with a final concentration of 0.2 nM. The reaction was kept at room temperature for 45 min. At the end of incubation, all the mixtures in the compound plate were transferred to a 384 well FB filter plates via GPCR robot system. The filter plate was washed with water 4 times by using the modified manifold Embla plate washer and dried at 60° C. for 45 min. 30 μA of MicroScint 20 scintillation fluid was added to each well for counting at Packard TOPCOUNT®. EC50 is defined as the agonist concentration that corresponds to 50% of the Ymax (maximal response) obtained for each individual compound tested.
as §3

human S1P1 = biological target: T3, human S1P1 (Homo sapiens, UniProt P21453); test: S1P1 Binding Assay (33P-S1P radioligand competition, CHO cell membranes); conditions: membranes from CHO cells expressing human S1P1; 0.03 nM 33P-S1P; 60 min room temperature
T3 construct: expressed in transfected cells; host or cells: CHO cells
Experimental: Membranes were prepared from CHO cells expressing human S1P1. Cells were dissociated in buffer containing 20 mM HEPES, pH 7.5, 50 mM NaCl, 2 mM EDTA and Protease Inhibitor cocktail (Roche), and disrupted on ice using the Polytron homogenizer. The homogenate was centrifuged at 20,000 rpm (48,000 g) and the supernatant was discarded. The membrane pellets were resuspended in buffer containing 50 mM HEPES, pH 7.5, 100 mM NaCl, 1 mM MgCl2, 2 mM EDTA and stored in aliquots at −80° C. after protein concentration determination.
Membranes ([…]) and 0.03 nM final concentration of ^33P—S1P ligand (1 mCi/ml, American Radiolabeled Chemicals) were added to the compound plates. Binding was performed for 60 min at room temperature, terminated by collecting the membranes onto GF/B filter plates, and radioactivity was measured by TOPCOUNT®. The competition data of the test compounds over a range of concentrations was plotted as percentage inhibition of radioligand specific binding. The IC50 is defined as the concentration of competing ligand needed to reduce specific binding by 50%.
Compounds of the present invention and Comparative Compound A were tested in the S1P1 binding assay described hereinabove and the results rounded to two digits, shown in Table A were obtained. In some instances, the value is an average of multiple experiments where N is the number of experiments conducted that provided satisfactory dose response curves. When more than one batch of an example was tested, the value presented is from the batch which allowed a comparison of GTPγS S1P1 and GTPγS S1P3 in Method A (Data shown in Table B). Data was not averaged across different batches of an example compound.

[3] = biological target: T4, S1P3 (membranes from S1P3 transfected CHO cells) (Homo sapiens, UniProt Q99500); test: Method B: Receptor [35S] GTPγS SPA Binding Assay, S1P3; type: biochemical
T4 construct: expressed in transfected cells; host or cells: CHO cells
Experimental: as §1, §2, §3

[4] = biological target: T5, S1P3 (membranes from EDG3-Gal5-bla HEK293T cells) (Homo sapiens, UniProt Q99500); test: Method A: Receptor [35S] GTPγS Binding Assay, S1P3; type: biochemical
T5 construct: expressed in transfected cells; host or cells: EDG3-Gal5-bla HEK293T cells
Experimental: as §4, §5, §3

T5 sequence (Q99500 whole entry): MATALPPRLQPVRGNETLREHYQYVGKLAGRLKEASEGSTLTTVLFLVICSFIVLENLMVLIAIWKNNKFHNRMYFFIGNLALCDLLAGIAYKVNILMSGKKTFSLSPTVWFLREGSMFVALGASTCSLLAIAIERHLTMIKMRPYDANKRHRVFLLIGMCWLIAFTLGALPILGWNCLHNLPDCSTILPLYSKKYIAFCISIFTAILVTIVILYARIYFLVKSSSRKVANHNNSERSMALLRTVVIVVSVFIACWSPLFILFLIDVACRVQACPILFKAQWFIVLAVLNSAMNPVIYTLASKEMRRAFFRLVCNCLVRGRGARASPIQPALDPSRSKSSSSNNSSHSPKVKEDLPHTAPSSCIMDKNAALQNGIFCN
T4 sequence (Q99500 whole entry): as above
T3 sequence (P21453 whole entry): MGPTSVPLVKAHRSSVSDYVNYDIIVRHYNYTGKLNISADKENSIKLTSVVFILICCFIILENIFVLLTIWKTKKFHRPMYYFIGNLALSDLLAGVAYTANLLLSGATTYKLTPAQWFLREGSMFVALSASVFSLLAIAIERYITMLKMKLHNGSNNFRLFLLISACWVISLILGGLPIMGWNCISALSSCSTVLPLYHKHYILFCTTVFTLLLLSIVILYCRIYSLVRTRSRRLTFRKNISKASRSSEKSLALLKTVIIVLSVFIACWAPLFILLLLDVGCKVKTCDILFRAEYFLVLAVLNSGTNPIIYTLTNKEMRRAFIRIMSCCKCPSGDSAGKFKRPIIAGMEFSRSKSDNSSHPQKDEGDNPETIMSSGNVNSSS
T1 sequence (P21453 whole entry): as above
T2 sequence (P21453 whole entry): as above

`O=C(O)C1CN(Cc2ccc(-c3noc(-c4cc(-c5ccccc5)c(C(F)(F)F)s4)n3)cc2)C1` [Comp. A, 1-(4-(5-(4-Phenyl-5-(trifluoromethyl)thiophen-2-yl)-1,2,4-oxadiazol-3-yl)benzyl)azetidine-3-carboxylic acid, reference compound] was tested, and the “GTPγS S1P3/S1P1 (Method B)” value [1] was 78 and the “GTPγS S1P3/S1P1 (Method A)” value [2] was 1.2.

In the case of `O=C(O)C1CN(Cc2ccc(-c3noc(-c4noc(-c5ccccn5)c4C(F)(F)F)n3)cc2)C1` [Example 2, 1-(4-(5-(5-(Pyridin-2-yl)-4-(trifluoromethyl)isoxazol-3-yl)-1,2,4-oxadiazol-3-yl)benzyl)azetidine-3-carboxylic acid], the EC50 [1] is reported as 0.34 nM, the “GTPγS S1P3/S1P1 (Method B)” value [1] is reported as 13,000 and the EC50 [2] is reported as 4.5 nM. The IC50 (human S1P1) was 0.39 nM and the EC50 [3] was 4400 nM.

`CCCc1c(-c2nc(-c3ccc(CN4CC(C(=O)O)C4)cc3)no2)noc1-c1ccccn1` [Example 3, 1-(4-(5-(4-Propyl-5-(pyridin-2-yl)isoxazol-3-yl)-1,2,4-oxadiazol-3-yl)benzyl)azetidine-3-carboxylic acid, 2,2,2-trifluoroacetic acid salt] was tested, and the EC50 [1] was 0.65 nM, the “GTPγS S1P3/S1P1 (Method B)” value [1] was 430 and the EC50 [2] was 0.82 nM. For the same compound, the “GTPγS S1P3/S1P1 (Method A)” value [2] was 2,600, the IC50 (human S1P1) was 0.021 nM and the EC50 [4] was 2100 nM. For the same compound, the EC50 [3] was 280 nM.

`CC(C)c1c(-c2nc(-c3ccc(CN4CC(C(=O)O)C4)cc3)no2)noc1-c1ccccn1` [Example 4, 1-(4-(5-(4-Isopropyl-5-(pyridin-2-yl)isoxazol-3-yl)-1,2,4-oxadiazol-3-yl)benzyl)azetidine-3-carboxylate, 2,2,2-trifluoroacetic acid salt] was tested, and the EC50 [1] was 1 nM, the EC50 [2] was 39 nM and the “GTPγS S1P3/S1P1 (Method A)” value [2] was 179. The IC50 (human S1P1) was 0.18 nM and the EC50 [4] was 7000 nM.

For `CCc1c(-c2nc(-c3ccc(CN4CC(C(=O)O)C4)cc3)no2)noc1-c1ccccn1` [Example 5, 1-(4-(5-(4-Ethyl-5-(pyridin-2-yl)isoxazol-3-yl)-1,2,4-oxadiazol-3-yl)benzyl)-azetidine-3-carboxylic acid, 2,2,2-trifluoroacetic acid salt], the EC50 [1] was 0.61 nM, the EC50 [2] was 3.7 nM and the “GTPγS S1P3/S1P1 (Method A)” value [2] was 513. It also gave an IC50 (human S1P1) of 0.051 nM and an EC50 [4] of 1900 nM.

`CCCc1c(-c2ccccn2)noc1-c1nc(-c2ccc(CN3CC(C(=O)O)C3)cc2)no1` [Example 6, 1-(4-(5-(4-Propyl-3-(pyridin-2-yl)isoxazol-5-yl)-1,2,4-oxadiazol-3-yl)benzyl)-azetidine-3-carboxylic acid, 2,2,2-trifluoroacetic acid salt] was tested, and the EC50 [1] was 0.082 nM, the “GTPγS S1P3/S1P1 (Method B)” value [1] was 5,200 and the IC50 (human S1P1) was 0.019 nM. The EC50 [3] was 430 nM.

`COC(=O)c1c(-c2ccccn2)noc1-c1nc(-c2ccc(CN3CC(C(=O)O)C3)cc2)no1` [Example 7, 1-(4-(5-(4-(Methoxycarbonyl)-3-(pyridin-2-yl)isoxazol-5-yl)-1,2,4-oxadiazol-3-yl)benzyl)azetidine-3-carboxylic acid] was tested, and the EC50 [2] was 3.3 nM, the “GTPγS S1P3/S1P1 (Method A)” value [2] was 5,800 and the IC50 (human S1P1) was 0.53 nM. The EC50 [4] was 19000 nM.

`O=C(O)C1CN(Cc2ccc(-c3noc(-c4cc(-c5ccccn5)no4)n3)cc2)C1` [Example 8] was tested, and the EC50 [1] was 68 nM, the EC50 [2] was 450 nM and the “GTPγS S1P3/S1P1 (Method A)” value [2] was 5.1. It also gave an IC50 (human S1P1) of 6.5 nM and an EC50 [4] of 2300 nM.
